Measurements: BindingDB's records for doi:10.3109/14756366.2013.765417 (Msa University, 2014)

Assays:
[1] = target: Epidermal growth factor receptor (Homo sapiens, UniProt P00533); test: In Vitro Tyrosine Kinase Enzyme Assay
Experimental: (§1) Protein kinase assays were performed at ambient temperature for 20-40 min (depending on the target) in a final volume of 25 μl according to the following assay reaction recipe: […] of diluted active protein kinase target (~10-50 nM final protein concentration in the assay), 2.5 μl of peptide substrate, 3. μl of kinase assay buffer, 5 μl of compound or 10% DMSO, and 5 μl of 33P-ATP (250 μM stock solution, 0.8 mCi). The assay was initiated by the addition of 33P-ATP and the reaction mixture was incubated at ambient temperature for 20-40 min, depending on the protein kinase target. After the incubation period, the assay was terminated by spotting 10 μl of the reaction mixture onto Multiscreen phosphocellulose P81 plate. The Multiscreen phosphocellulose P81 plate was washed three times for approximately 15 min each in a 1% phosphoric acid solution. The radioactivity on the P81 plate (EMD Millipore Corporation, Billerica, MA) was counted in the presence of scintillation fluid in a Trilux scintillation counter (GMI Inc., Ramsey, MN).

[2] = target: Receptor tyrosine-protein kinase erbB-2 (Homo sapiens, UniProt P04626); test: In Vitro Tyrosine Kinase Enzyme Assay
Experimental: as §1

Chain of Epidermal growth factor receptor (P00533 whole entry): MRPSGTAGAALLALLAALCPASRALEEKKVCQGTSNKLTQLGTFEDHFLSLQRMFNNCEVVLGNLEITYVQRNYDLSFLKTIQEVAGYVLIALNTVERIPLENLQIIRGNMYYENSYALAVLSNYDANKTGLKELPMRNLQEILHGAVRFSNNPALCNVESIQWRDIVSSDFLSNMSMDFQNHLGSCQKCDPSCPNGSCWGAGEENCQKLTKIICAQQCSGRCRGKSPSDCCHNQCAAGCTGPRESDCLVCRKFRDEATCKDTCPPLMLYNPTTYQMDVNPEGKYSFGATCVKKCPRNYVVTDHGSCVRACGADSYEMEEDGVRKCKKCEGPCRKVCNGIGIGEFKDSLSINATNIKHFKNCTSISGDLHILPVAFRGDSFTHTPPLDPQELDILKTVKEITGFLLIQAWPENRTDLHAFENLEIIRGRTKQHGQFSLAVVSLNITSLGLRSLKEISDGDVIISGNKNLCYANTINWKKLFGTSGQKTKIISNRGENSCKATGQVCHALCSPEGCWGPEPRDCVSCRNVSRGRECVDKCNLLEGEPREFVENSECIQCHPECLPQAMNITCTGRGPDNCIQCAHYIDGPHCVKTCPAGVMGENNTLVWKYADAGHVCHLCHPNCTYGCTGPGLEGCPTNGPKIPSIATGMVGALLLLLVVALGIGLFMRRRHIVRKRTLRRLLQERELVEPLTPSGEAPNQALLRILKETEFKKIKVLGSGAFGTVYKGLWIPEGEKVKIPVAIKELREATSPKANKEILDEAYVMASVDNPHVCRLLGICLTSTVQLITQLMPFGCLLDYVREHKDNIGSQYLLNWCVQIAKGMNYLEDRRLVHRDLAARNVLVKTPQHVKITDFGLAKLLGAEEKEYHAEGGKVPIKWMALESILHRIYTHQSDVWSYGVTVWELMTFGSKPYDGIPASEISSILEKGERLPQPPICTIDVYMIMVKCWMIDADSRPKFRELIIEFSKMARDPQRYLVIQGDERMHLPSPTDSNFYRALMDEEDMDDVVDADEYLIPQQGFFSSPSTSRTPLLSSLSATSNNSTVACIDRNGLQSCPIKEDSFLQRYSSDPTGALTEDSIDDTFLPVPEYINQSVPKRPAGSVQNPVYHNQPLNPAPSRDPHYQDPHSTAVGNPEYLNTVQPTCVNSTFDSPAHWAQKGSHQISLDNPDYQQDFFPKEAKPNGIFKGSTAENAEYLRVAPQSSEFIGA
Chain of Receptor tyrosine-protein kinase erbB-2 (P04626 whole entry): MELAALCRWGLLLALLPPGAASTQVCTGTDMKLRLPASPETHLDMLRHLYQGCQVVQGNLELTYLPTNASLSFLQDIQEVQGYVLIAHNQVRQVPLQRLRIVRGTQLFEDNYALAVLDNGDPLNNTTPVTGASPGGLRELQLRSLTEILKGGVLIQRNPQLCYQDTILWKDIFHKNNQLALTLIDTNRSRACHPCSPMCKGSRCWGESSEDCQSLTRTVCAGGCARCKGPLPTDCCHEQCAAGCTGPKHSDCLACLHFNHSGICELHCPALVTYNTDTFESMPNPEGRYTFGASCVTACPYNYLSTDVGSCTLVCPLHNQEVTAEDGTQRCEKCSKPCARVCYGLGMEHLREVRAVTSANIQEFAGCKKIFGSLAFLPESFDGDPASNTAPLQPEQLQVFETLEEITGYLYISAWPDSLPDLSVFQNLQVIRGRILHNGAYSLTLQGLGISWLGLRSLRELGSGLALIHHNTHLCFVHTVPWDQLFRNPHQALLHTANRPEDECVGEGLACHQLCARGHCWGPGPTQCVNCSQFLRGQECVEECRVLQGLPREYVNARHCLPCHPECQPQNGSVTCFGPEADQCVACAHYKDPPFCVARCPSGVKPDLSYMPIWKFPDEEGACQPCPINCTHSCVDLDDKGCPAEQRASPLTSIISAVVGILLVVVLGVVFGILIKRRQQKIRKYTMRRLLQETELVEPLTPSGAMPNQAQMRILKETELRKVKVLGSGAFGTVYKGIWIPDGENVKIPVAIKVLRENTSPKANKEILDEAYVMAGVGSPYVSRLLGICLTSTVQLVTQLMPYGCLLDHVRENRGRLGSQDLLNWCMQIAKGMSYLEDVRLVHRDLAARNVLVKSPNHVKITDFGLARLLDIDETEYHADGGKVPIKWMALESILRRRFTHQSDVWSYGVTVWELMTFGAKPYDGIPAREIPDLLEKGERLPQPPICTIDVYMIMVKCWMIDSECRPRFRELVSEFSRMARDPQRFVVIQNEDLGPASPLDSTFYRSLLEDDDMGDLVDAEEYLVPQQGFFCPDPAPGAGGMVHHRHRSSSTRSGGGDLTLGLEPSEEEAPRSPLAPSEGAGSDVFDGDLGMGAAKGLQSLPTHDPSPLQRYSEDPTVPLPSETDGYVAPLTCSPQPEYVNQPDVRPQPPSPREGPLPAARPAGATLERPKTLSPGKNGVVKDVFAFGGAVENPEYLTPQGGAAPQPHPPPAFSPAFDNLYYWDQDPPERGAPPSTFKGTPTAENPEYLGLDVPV

Row | IC50 [1] [nM] | IC50 [2] [nM] | SMILES
1 | 2580 | 98800 | COc1cc2ncnc(Nc3ccc(C(=O)/C=C/c4ccc(Cl)cc4)cc3)c2cc1OC [(E)-3-(4-Chlorophenyl)-1-{4-[(6,7-dimethoxyquinazolin-4-yl)amino]phenyl}prop-2-en-1-one]
2 | 2090 | 3980 | N#Cc1c(-c2ccc(F)cc2)cc(-c2ccc(Nc3ncnc4ccccc34)cc2)[nH]c1=N [HER2/EGFR dual kinase inhibitor, 5d]
3 | 1930 | 1040 | COc1cc2ncnc(Nc3ccc(-c4cc(-c5ccc(Br)cc5)c(C#N)c(=N)[nH]4)cc3)c2cc1OC [HER2/EGFR dual kinase inhibitor, 5e]
